Entries after “also recorded” stand apart in the source; their conditions may differ. Like-named read-outs stand apart in the source and are kept apart here. One block for each compound: values may come before it.
Experiments:
[1] = tested on: MMP-1-mRNA; experiment: Light-induced expression of MMP-1-mRNA in skin models (Northern blot); assay type: cell-based; settings: for MMP 1 expression: 0 ppm unexposed = 100; for percentage change in the expression of MMP: by comparison with exposed, untreated cultures
Method: (§1) To this end, the quantity of mRNA was quantified for MMP1, TIMP and Colaα1. Skin models were treated with the test substances for 12 hours and then exposed to simulated sunlight corresponding to a dose of 10 J UV-A/cm^2. After another 48 hours in the presence of the active substances, the RNA of the cells was prepared and analyzed by Northern blots with specific gene probes. To monitor the quantity of RNA used in the experiments, Northern blots were carried out with an 18S-specific gene probe. To quantify the signal intensities, the autoradiograms were evaluated by densitometry and the values of the signals for MMP1, TIMP and Colα1, were related to the associated values of the 18S signals. The figures in Table 1 represent the densitometric quantification of the signals of a Northern blot after normalization thereof.

[2] = tested on: fungal tyrosinase (Sigma); experiment: Inhibition of tyrosinase activity (L-DOPA to dopachromium, absorption at 475 nm); assay type: biochemical; settings: for Residual tyrosinase activity in %: without active substance = 100%
Method: Tyrosinases physiologially catalyze an important step in the synthesis of melanin (L-dopa to L-dopaquinone which is further cyclized and re-reacted by a tyrosinase to dopachromium). Accordingly, inhibition of the tyrosinase can lead to a skin lightening effect.
The activity of fungal tyrosinase (Sigma) was determined in the presence of various concentrations of the active substances according to the invention by enzymatic reaction of LDOPA to dopachromium. The absorption maximum of dopachromium (red-brown) is at λ=475 nm. The linear increase in the absorption (A) of the dopachromium per unit of time (t) is a measure of the activity of the tyrosinase (ΔN/Δt). The activity of the tyrosinase in the absence of the active substances (ΔA1/Δt1) was used as reference (100%). Under analogous conditions, the residual tyrosinase activity was determined in the presence of the active substances (ΔA2/Δt2). Each measurement was carried out twice in parallel runs. The variation of the results of the method is ca.±10%.
50 mM KH2PO4 buffer in bidist. water (adjustment to pH 6.5 with 1 M aqueous KOH) 2.5 mM L-DOPA in bidist. water 340 U/ml tyrosinase stock solution in cold KH2PO4 buffer, pH 6.5. Stock solutions of the active substance to be tested in bidist. water or ethanol in which the concentration of the active substance was 10 times higher than indicated in the line “active substance concentration in the test system” under “results”.
Like the tyrosinase stock solution, the reaction cocktail was prepared just before the beginning of the test. The tyrosinase stock solution has to be kept in a refrigerator. The L-DOPA solutions should be stored in darkness and in tightly closed containers in the absence of oxygen. If it turns grey in color (oxidation by atmospheric oxygen), the solution must be freshly prepared.
33 μl tyrosinase stock solution 100 μl active substance stock solution reaction cocktail to 1000 μl
The activity of the tyrosinase in the absence of the active substances was used as reference (100%). All samples were thoroughly mixed in a Vibrofix before the beginning of the measurement. The pH value was monitored and if necessary was adjusted to pH 6.5. The measurement was carried out with a Kontron Uvikon 860 photometer. The absorption of the dopachromium was detected for 5 mins. at 25° C. at the absorption maximum X of 475 nm, the measuring time being 20-30 s.

[3] = tested on: Dermal fibroblasts of human skin; experiment: Phototoxicity, MTT test after simulated sunlight (10 J UV-A/cm^2); assay type: cell-based
Method: Dermal fibroblasts of human skin were cultivated with increasing concentrations of retinol (Table 1), 6-O-naringin-(p-Cl-phenylacetic acid)ester (Table 2) and 6-O-naringin-(3-phenylpropionic acid)-ester (Table 3). The phototoxicity of the substances was measured by an MTT test. To determine phototoxicity, the treated cells were exposed to simulated sunlight corresponding to a dose of 10 J UV-A/cm^2. The vitality of untreated cells was put at 100% and all other values were related to that value.
The exposure of the cells was carried out with a sunlight simulator from the emission spectrum of which the UV-A component of the radiation was measured for quantification. The advantage of this experimental design is the fact that the complete spectrum of the sunlight is used so that the everyday situation is excellently simulated. By contrast, many other research laboratories use pure UV-A and for UV-B lamps.

[4] = tested on: Colα1-mRNA; experiment: Light-induced expression of Colα1-mRNA in skin models (Northern blot); assay type: cell-based; settings: for Collagen expression: exposed, 0 ppm unexposed = 100; for percentage change in the expression of Colα1: by comparison with exposed, untreated cultures
Method: as §1

[5] = tested on: TIMP-mRNA; experiment: Light-induced expression of TIMP-mRNA in skin models (Northern blot); assay type: cell-based; settings: for TIMP expression: 0 ppm unexposed = 100; for percentage change in the expression of TIMP: by comparison with exposed, untreated cultures
Method: as §1

[6] = tested on: fibroblasts; experiment: Collagen production at protein level, fibroblasts in three-dimensional culture system; assay type: cell-based; settings: 5 days, treated against untreated cultures
Method: On the sixth day, the quantity of collagen formed compared with non-collagen protein was determined via the incorporation of titrated protein.

Residual tyrosinase activity in % ([2]; active substance 0.005% (w/v in bidist H2O)): 98.9%
Residual tyrosinase activity in % ([2]; active substance 0.05% (w/v in bidist H2O)): 69.1%
Residual tyrosinase activity in % ([2]; active substance 0.5% (w/v in bidist H2O)): 0.7%
IC 50 (tyrosinase) ([2]; w/v in bidist H2O): 0.18%
SMILES: C[C@@H]1O[C@@H](O[C@H]2[C@H](Oc3cc(O)c4c(c3)O[C@H](c3ccc(O)cc3)CC4=O)O[C@H](COC(=O)CCc3ccccc3)[C@@H](O)[C@@H]2O)[C@H](O)[C@H](O)[C@H]1O [6-O-naringin-(3-phenylpropionic acid)-ester]
MMP 1 expression ([1]; 10 ppm, exposed): 167%
sunlight-induced expression of MMP-1 (in words) ([1]; 100 ppm): reduced the sunlight-induced expression of MMP-1 to the level of the unexposed, untreated sample
MMP 1 expression ([1]; 100 ppm, exposed): 87%
percentage change in the expression of MMP ([1]; 100 ppm): −37%
Phototoxicity (in words) [3]: only show toxic effects in relatively high concentrations
Collagen expression ([4]; 10 ppm): 74%
expression of Colα1 (in words) ([4]; 100 ppm): increased to the level of the unexposed, untreated culture
Collagen expression ([4]; 100 ppm): 99%
percentage change in the expression of Colα1 ([4]; 100 ppm): 64%
TIMP expression ([5]; 10 ppm, exposed): 104%
TIMP production (in words) ([5]; 100 ppm): increased TIMP production considerably
increase in expression of TIMP ([5]; 100 ppm, exposed): around 35%
TIMP expression ([5]; 100 ppm, exposed): 134%
percentage change in the expression of TIMP ([5]; 100 ppm): 50%
Increase in collagen production ([6]; 1 ppm): 8%
Increase in collagen production ([6]; 10 ppm): 8%
Increase in collagen production ([6]; 100 ppm): 19%

SMILES: CC1OC(OC2C(Oc3cc(O)c4c(c3)OC(c3ccc(O)cc3)CC4=O)OC(COC(=O)Cc3ccc(Cl)cc3)C(O)C2O)C(O)C(O)C1O (stereo not shown) [6-O-naringin-(p-Cl-phenylacetic acid)-ester]
MMP 1 expression ([1]; 5 ppm, exposed (10 J UV-A/cm^2)): 129%
sunlight-induced expression of MMP-1 (in words) ([1]; 50 ppm): very effectively reduced
MMP 1 expression ([1]; 50 ppm, exposed): 40%
percentage change in the expression of MMP ([1]; 50 ppm): −70%
Residual tyrosinase activity in % ([2]; active substance 0.01% (w/v in 98% ethanol)): 45.1%
Residual tyrosinase activity in % ([2]; active substance 0.1% (w/v in 98% ethanol)): 15.4%
Vitality (%; in brackets: SEM) ([3]; 5 ppm, 10 J UV-A/cm^2, untreated cells = 100%): 115 (15) %
Vitality (%; in brackets: SEM) ([3]; 10 ppm, 10 J UV-A/cm^2, untreated cells = 100%): 96 (17.2) %
Vitality (%; in brackets: SEM) ([3]; 50 ppm, 10 J UV-A/cm^2, untreated cells = 100%): 81 (8.3) %
Vitality (%; in brackets: SEM) ([3]; 100 ppm, 10 J UV-A/cm^2, untreated cells = 100%): 3 (1.7) %
Vitality (%; in brackets: SEM) ([3]; 500 ppm, 10 J UV-A/cm^2, untreated cells = 100%): 3 (1.8) %
Phototoxicity (in words) ([3]; compared with retinol, 10 J UV-A/cm^2): only show toxic effects in relatively high concentrations
Collagen expression ([4]; 5 ppm): 56%
Collagen expression ([4]; 50 ppm): 79%
percentage change in the expression of Colα1 ([4]; 50 ppm): 27%
expression of Colα1 (in words) ([4]; 50 ppm, in relation to the exposed, untreated sample): distinctly increased
TIMP expression ([5]; 5 ppm, exposed): 62%
expression of TIMP (in words) ([5]; 50 ppm): only slightly affected; also recorded: only a slight effect
TIMP expression ([5]; 50 ppm, exposed): 77%
percentage change in the expression of TIMP ([5]; 50 ppm): −15%
Increase in collagen production ([6]; 5 ppm): −3%
Increase in collagen production ([6]; 50 ppm): 41%

SMILES: CC1=C(/C=C/C(C)=C/C=C/C(C)=C/CO)C(C)(C)CCC1 [retinol, reference compound]
Phototoxicity (in words) [3]: toxic in very low concentrations
Vitality (%; in brackets: SEM) ([3]; human, 0.0028 ppm): 99 (7.4) %
Vitality (%; in brackets: SEM) ([3]; human, 0.014 ppm): 95 (19.8) %
Vitality (%; in brackets: SEM) ([3]; human, 0.028 ppm): 80 (25.9) %
Vitality (%; in brackets: SEM) ([3]; human, 0.14 ppm): 28 (11.8) %
Vitality (%; in brackets: SEM) ([3]; human, 0.28 ppm): 4 (2.1) %

— patent US20080176811A1, “NOVEL FLAVONE GLYCOSIDE DERIVATIVES FOR USE IN COSMETICS, PHARMACEUTICALS AND NUTRITION” (priority 2000, published 2008)
